In PubChem BioAssay AID624344 (Sanford-Burnham Center for Chemical Genomics, 2012):
Active and inactive are the calls of the source. How the calls were made is not given here. Square brackets hold non-standard residues; d marks the D form. Peptide text beside a SMILES is read from it. NMeY = CN[C@@H](Cc1ccc(O)cc1)C(=O)O; NMeF = CN[C@@H](Cc1ccccc1)C(=O)O; 2Abz = Nc1ccccc1C(=O)O

Legend:
Cytotoxicity = test: NFkB reporter suppression in cystic fibrosis bronchial cells – cell-based, uHTS hits, panel, cytotoxicity readout, dose response (AID 624344); conditions: CF bronchial epithelial cells, mean of runs
[1] = as above; conditions: CF bronchial epithelial cells, PAF-induced NFkB reporter inhibition; with PAF, mean of runs

Row | SMILES | IC50 (Cytotoxicity) | IC50 [1]
1 | CCOC(=O)c1[nH]c2c(c1C)C(=O)CC(c1ccco1)C2 (stereo not given) | > 79 µM (inactive) | inactive
2 | Cc1cccc(C(=O)N[C@H](C(=O)Nc2nc3ccccc3[nH]2)C(C)C)c1 | 19.6 µM | 14.9 µM
3 | Cc1ccc(S(=O)(=O)Nc2cccc3cccnc23)c([N+](=O)[O-])c1 | > 79 µM (inactive) | 2.84 µM
4 | CCN1CCN(Cc2ccc(NC(=O)c3ccc(C)c(NC(=O)c4cccc5[nH]ccc45)c3)cc2C(F)(F)F)CC1 | 47.7 µM | 7.33 µM
5 | COc1ccc(N=Cc2cc3c(cc2O)OC(N)=C(C#N)C3c2ccccc2)cc1 (stereo not given) | 59.8 µM (inactive) | 3.4 µM
6 | NC(=O)c1nsc(C(=O)N(c2ccccc2)C(C(=O)NCc2ccc(F)cc2)c2ccc(O)cc2)c1N (stereo not given) | 8.81 µM | 4.75 µM
7 | NC1(C(=O)O)CSSC1 | 35.6 µM | 7.73 µM
8 | O=C(Nc1nc2ccc(F)cc2s1)C1CCN(S(=O)(=O)c2cc([N+](=O)[O-])ccc2Cl)CC1 | 10.8 µM | 6.4 µM
9 | COc1ccc2c(=O)cc(-c3ccncc3)oc2c1OC | 13.6 µM | 3.97 µM
10 | CCc1cc(-c2[nH]ncc2-c2ccc(OC)cc2)c(O)cc1O | 31 µM | 3.56 µM
11 | C#CCN(C[C@@H]1[C@@H](OC(=O)NCc2ccco2)[C@@H](OC(=O)NCc2ccco2)Cn2c(=O)ccc(=O)n21)S(=O)(=O)c1ccc(C)cc1 | 18.3 µM | 3.11 µM
12 | O=C(NNC(=S)Nc1cccc(C(F)(F)F)c1)c1cccc(Cl)c1 | 9.54 µM | 4.81 µM
13 | Cc1ccc(C(=O)Nc2cccc(C(F)(F)F)c2)cc1NC(=O)c1nccnc1N | 9.52 µM | 8.15 µM
14 | N#CC(C#N)=C1SC(=Nc2ccccc2)C(=Nc2ccccc2)N1c1ccccc1 | 12.4 µM | 8.12 µM
15 | CC(C)=CCc1c(O)cc(O)c2c1OC(c1ccc(O)cc1)CC2=O (stereo not given) | 43.6 µM | 4.52 µM
16 | O=C(Oc1ccc(F)cc1C(=O)/C=C/c1cccs1)c1cccc([N+](=O)[O-])c1 | > 79 µM (inactive) | inactive
17 | COc1ccc(-c2cc(C(F)(F)F)nc(S(=O)(=O)CCCC(=O)Nc3cccnc3Cl)n2)cc1OC | 1.32 µM | 1.44 µM
18 | CC(=O)Nc1ccc(Nc2nc(-c3sc(NC(C)=O)nc3C)cs2)cc1 | 28.4 µM | 1.69 µM
19 | Cc1cccc(NC(=O)Nc2ccc(C#N)cc2)n1 | 20.6 µM | 1.78 µM
20 | C=CC(=O)Nc1cccc(Oc2ncnc3[nH]cc(-c4cnc5ccccc5c4)c23)c1 | 54.8 µM (inactive) | 1.35 µM

Row | SMILES | IC50 (Cytotoxicity) | IC50 [1]
21 | Cc1cccc2sc(N(CCCN(C)C)C(=O)CCS(=O)(=O)c3ccccc3)nc12 | 7.52 µM | 3.22 µM
22 | COc1ccc(CNC(=O)C(c2ccc(O)cc2)N(Cc2ccco2)C(=O)c2snc(C(N)=O)c2N)cc1 (stereo not given) | 5 µM | 4.58 µM
23 | Cc1ccc(Cl)cc1-c1cc(C(=O)NCc2cc(C(F)(F)F)cc(C(F)(F)F)c2)[nH]n1 | 16.6 µM | 8.92 µM
24 | CC(=O)c1c(C)n(-c2ccc(C)cc2C)c2ccc(O)cc12 | > 79 µM (inactive) | 12.7 µM
25 | COc1cccc(N2CCN(c3c(C#N)c(C(F)(F)F)nn3C)CC2)c1 | 58.4 µM (inactive) | 2.27 µM
26 | NS(=O)(=O)c1ccc(CCNc2nn3c(-c4cccc(OC(F)(F)F)c4)cnc3s2)cc1 | 19.7 µM | 3.64 µM
27 | C=C1C(=O)[C@]23C[C@H]1CC[C@H]2[C@]1(C)[C@@H](OC(C)=O)CC[C@@](C)(C(=O)O)[C@H]1C[C@@H]3O | 8.28 µM | 0.938 µM
28 | CC(C)C[C@@H]1NC(=O)[C@H](Cc2ccccc2)N(C)C(=O)[C@H](C)NC(=O)c2ccccc2NC(=O)[C@H](Cc2ccc(O)cc2)N(C)C1=O (cyclo([2Abz]A[NMeF]L[NMeY])) | 6.59 µM | 3.42 µM
29 | C=CC[C@@H](CC/C=C/C=C/CC/C=C\[C@@H]1CSC([C@@H]2C[C@@H]2C)=N1)OC | 63 µM (inactive) | inactive
30 | NC(N)=NN=C(c1ccc(F)cc1)c1ccc(C(F)(F)F)cc1 | 25.3 µM | 5.87 µM
31 | CC(=O)Nc1ccc(S(=O)(=O)N2c3ccccc3C(C)=CC2(C)C)cc1 | 44.5 µM | inactive
32 | Cc1ccnc(Nc2nc(-c3sc(C)nc3C)cs2)c1 | 16.6 µM | 5.11 µM
33 | Cc1cccc(CS(=O)(=O)c2ncc(Cl)c(C(=O)NCc3ccccc3)n2)c1 | 2.27 µM | 2.47 µM
34 | CCOc1ccccc1N1CCN(C(=O)c2cc(-c3cc(OC)ccc3OC)nc3ccccc23)CC1 | 12 µM | 4.12 µM
35 | O=C(CN1C(=O)CCC1=O)Nc1nc(-c2nc3ccccc3s2)cs1 | > 79 µM (inactive) | 4.92 µM
36 | c1nc(N2CCOCC2)c2c3c(sc2n1)CCCC3 | 62.3 µM (inactive) | 6.88 µM
37 | CCCCN(CCCC)c1ncnc2nc[nH]c12 | 41.4 µM | 5.64 µM
38 | COc1ccc(-n2cc(-c3ccccc3)c3c(N4CC(C)OC(C)C4)ncnc32)cc1 (stereo not given) | 3.56 µM | 4.95 µM
39 | CN(C)C(=O)c1cccc(-c2cnc3sc(NCc4ccc5c(c4)OCO5)nn23)c1 | 46.5 µM | 1.69 µM
40 | Cc1ccc(C(=O)c2cncc(Br)c2)cc1 | > 79 µM (inactive) | 13 µM
